According to publication PMC12693135, “Ocular Toxicity and Mechanistic Investigation for Berberine and Its Metabolite Berberrubine on Zebrafish” (Molecules, 2025):

How the values were obtained:
[1] = Zebrafish embryonic developmental toxicity (mortality, LC50); set-up: species or system zebrafish (Danio rerio); settings: wild-type AB, in vivo, exposure from 6 hpf, mortality at 5 dpf, read-out: LC50 (half-lethal concentration)
Protocol: First, the half-lethal concentration (LC50) values of berberine (BBR) and berberrubine (M1) in zebrafish were calculated. Wild-type AB strain zebrafish embryos staged at 6 h post-fertilization (hpf), corresponding to the 50% epiboly stage, were exposed to BBR or M1 at different concentrations. Mortality was recorded via stereomicroscopy at 5 days post-fertilization (5 dpf).
Embryos at 6 hpf (50% epiboly stage) were grouped and exposed to incubation solutions of berberine (BBR) at concentrations of 20, 50, 100, 200, and 400 µM, or M1 at concentrations of 20, 50, 100, 200, 400, and 625 µM, until 5 dpf. The control group was treated with 0.05% DMSO in saline. All experiments were performed in three biological replicates; unless otherwise specified, each replicate included 30 larvae per treatment, resulting in a total of 90 larvae per treatment.
Wild-typed AB strain zebrafish embryos at the 6 h post-fertilization stage (6 hpf) were grouped (30 fishes per group), and BBR at the concentrations of 20, 50, 100 and 200 µM or M1 at the concentrations of 20, 50, 100, 200, 400 and 625 µM were administered by microinjection, taking 0.05% DMSO in saline as the control. The mortality was recorded everyday by SZX2 stereomicroscopy (Olympus, Hachioji-shi, Japan) until 5 dpf. Dead embryos were recorded and discarded every 24 h. […]

[2] = test system: wild-type AB strain zebrafish ocular cells; experiment: Fluorescence microscopy for ocular cell apoptosis (acridine orange); type: in vivo, zebrafish (Danio rerio); settings: for fluorescence intensity of apoptotic ocular cells (ratio to eye area): control 0.19
Protocol: To investigate the underlying mechanism of ocular toxicity, we evaluated the proapoptotic effects of BBR and M1 on wild-type AB strain zebrafish ocular cells. Zebrafish embryos at 6 hpf were water-soluble administration with BBR (25 or 50 μM) or M1 (100 or 200 μM), and the fluorescence intensity of apoptotic ocular cells was measured at 5 dpf using confocal fluorescence microscopy (Figure 4A). […] Specifically, the fluorescence intensity (a marker of apoptotic cell abundance) was increased from 0.19 to 0.28 and 0.32 upon the treatments of 25 μM BBR and 50 μM BBR, respectively.
A total of 30 wild-type AB strain zebrafish at 6 hpf were treated with BBR at 25 or 50 μM, M1 at 100 or 200 μM, or 0.05% DMSO (control), respectively, […], with 30 larvae per treatment and three biological replicates (total 90 larvae per group). The zebrafish larvae were then stained with acridine orange. After staining, 10 larvae were randomly selected from each experimental group and imaged using a motorized-focus continuous-zoom fluorescence microscope AZ100 (Nikon, Shinagawa-ku, Japan) with the magnification of 10–40× and exposure time of 200–500 ms. The fluorescence intensity of ocular apoptotic cells and mitochondria in zebrafish larvae was measured and analyzed using NIS-Elements 6.10 (Nikon Imaging Software, Nikon, Japan).

[3] = test system: wild-type AB strain zebrafish; experiment: Determination of ATP and ROS levels in zebrafish larvae; type: in vivo, zebrafish (Danio rerio); settings: BBR 25 or 50 μM, M1 100 or 200 μM, 5 dpf; for ROS levels: relative to control
Protocol: Wild-type AB strain zebrafish (6 hpf) were treated with BBR (25 or 50 μM), M1 (100 or 200 μM), or 0.05% DMSO (control) until 5 dpf, with 30 larvae per treatment and three biological replicates (total 90 larvae per group). Subsequently, 3 larvae were pooled per sample (10 samples per group) and the entire zebrafish was transferred directly into a 96-well plate for fluorescence detection. Cellular ATP content was determined using the CellTiter-Glo® Luminescent Cell Viability Assay Kit (Promega, Madison, WI, USA), which relies on a bioluminescent principle (luciferase-luciferin reaction). Cellular ROS levels were measured using CM-H2DCFDA kits (Invitrogen, Carlsbad, CA, USA), based on the oxidation of non-fluorescent CM-H2DCFDA to fluorescent DCF by ROS. Reagents were prepared and reactions were performed according to the manufacturers’ instructions, with luminescence detected using a Spark multifunctional microplate reader (Tecan, Grödig, Austria).

[4] = test system: wild-type AB strain zebrafish; experiment: qPCR gene expression in zebrafish larvae; type: in vivo, zebrafish (Danio rerio); settings: BBR 25 or 50 μM, M1 100 or 200 μM
Protocol: Wild-type AB strain zebrafish (6 hpf) were treated with BBR (25 or 50 μM), M1 (100 or 200 μM), or 0.05% DMSO (control) until 5 dpf, with 30 larvae per treatment and three biological replicates (total 90 larvae per group). A total of 30 larvae were pooled per sample (3 samples per group), collected, and homogenized. Total RNA was isolated using a commercial RNA extraction kit following the manufacturer’s protocol. The concentration and purity of the extracted RNA were determined by measuring the absorbance at 260 nm and 280 nm using a NanoDrop 2000 ultraviolet-visible spectrophotometer (Thermo, Waltham, MA, USA). A total of 1 µg of RNA from each sample was reverse-transcribed into complementary DNA (cDNA) using a PrimeScript RT reagent kit (Takara Bio Inc., Dalian, China). The reverse transcription reaction was performed in a T100 Thermal Cycler (BIO-RAD, Singapore) under the following conditions: 37 °C for 15 min, followed by 85 °C for 5 s.
The qPCR reactions were carried out to quantify the relative expression levels of target genes, including photoreceptor-related genes (rho and opn1sw), mitochondrial dynamics genes (mfn2 and drp1), autophagy markers (lc3b and p62), apoptosis-related genes (baxa, bcl2a, caspase9, caspase3, and caspase7), and inflammation-related genes (il1b and il6), on a CFX Connect quantitative real-time PCR instrument (BIO-RAD, Singapore). The experiment was performed according to the manufacturer’s instruction. β-actin served as the internal reference, and the experiment was repeated in triplicate.

[5] = test system: rabbit corneal epithelium; set-up: method as in PMID 32074824; settings: topical application of 1.5 mg/mL; cited from earlier work
[6] = test system: human lens epithelial cells (HLE-B3); set-up: method as in PMID 17645667; settings: 25 μM under UVA exposure; cited from earlier work

Row | Compound | LC50 [1] [µM] | fluorescence intensity of apoptotic ocular cells (ratio to eye area) ([2]; 25 μM) | fluorescence intensity of apoptotic ocular cells (ratio to eye area) ([2]; 50 μM) | intracellular ATP levels [3] | ROS levels [3] | bcl2a expression [4] | expression of baxa, caspase9, caspase3 and caspase7 [4] | expression of drp1 [4] | expression of lc3b [4] | expression of mfn2 [4] | expression of rho and opn1sw genes [4] | p62 levels [4] | transcription of il1β and il6 [4] | corneal epithelial repair [5] | phototoxic damage to cells [6] | apoptosis in ocular cells ([2]; 200 μM compared with 100 μM)
1 | COc1ccc2cc3[n+](cc2c1OC)CCc1cc2c(cc1-3)OCO2 [BBR, berberine] | 167 | 0.28 | 0.32 | significantly reduced | marked and dose-dependent increase | dose-dependently reduced bcl2a expression | increasing the expression of baxa, caspase9, caspase3 and caspase7 | increasing that of drp1 in a concentration-dependent manner | decreasing the expression of lc3b | decreased the expression of mfn2 dose-dependently | reduced the expression of these two genes in a dose-dependent manner | elevation in p62 levels | promoted the transcription of proinflammatory cytokine genes il1β and il6 | delayed corneal epithelial repair | severe damage | 
2 | COc1ccc2cc3[n+](cc2c1O)CCc1cc2c(cc1-3)OCO2 [M1, berberrubine] | 558 |  |  | significantly reduced | marked and dose-dependent increase | dose-dependently reduced bcl2a expression | increasing the expression of baxa, caspase9, caspase3 and caspase7 | increasing that of drp1 in a concentration-dependent manner | decreasing the expression of lc3b | decreased the expression of mfn2 dose-dependently | reduced the expression of these two genes in a dose-dependent manner | elevation in p62 levels | promoted the transcription of proinflammatory cytokine genes il1β and il6 |  |  | significant increase in apoptosis
